PMC7245553 (Cell chemical biology, 2020)
In brackets after ≈: the same amount, converted by molar mass.

Legend:
M. tuberculosis H37Rv [1] = assay: Mouse model of acute M. tuberculosis infection; assay type: in vivo, BALB/c mice; conditions: 100 mg/kg po qd
M. tuberculosis = M. tuberculosis killing kinetics; assay type: cell-based, Mycobacterium tuberculosis; conditions: 103 MIC of compound, over 7 days, followed by re-growth
M. tuberculosis H37Rv [2] = conditions: cited from earlier work
M. tuberculosis H37Rv [3] = conditions: acute model, 100 mg/kg qd po, alone; ref Kumar et al., 2018; cited from earlier work
[4] = mouse, microsomes; cited from earlier work
Vero cells = conditions: cited from earlier work
[5] = pH 7.4; cited from earlier work
[6] = Mouse pharmacokinetic profiling; assay type: in vivo, CD-1 mice; conditions: mouse, in vivo, po

SMILES: CCCCS(=O)(=O)Nc1ccc2cnn(C)c2c1 [DG167]
- increase of CFU in the lungs versus start of treatment (M. tuberculosis H37Rv [1]): about 1 log10 CFU
- reduction in CFUs, killing kinetics (M. tuberculosis): > 2 log10
- MIC H37Rv (M. tuberculosis H37Rv [2]; footnote a, ref Kumar et al. (2018)): 0.39 µM (≈ 0.104 µg/mL)
- MIC against the wild-type H37Rv strain (M. tuberculosis H37Rv [2]; ref Kumar et al., 2018): 0.39 mM (≈ 104 µg/mL)
- bacterial load of mouse lungs versus start of treatment (M. tuberculosis H37Rv [3]): did not reduce the bacterial load of mouse lungs
- MLM t1/2 [4]: 10.1 min
- CC50 (Vero cells): 23 µM
- Kinetic Aqueous Solubility [5]: 324 µM
- AUC0–5h/MIC [6]: 20
